The text below walks through data of patent US10149837B2, “Selective agonists of beta-adrenergic type 3 receptors (BAR3) and use thereof” (UNIVERSITA' DEGLI STUDI DI BARI, priority 2015, dated 2018).

“Also recorded” adds a separate entry of the source.

Assay [1] concerns conditional knockout mice for AVPR2. The experiment in a line: diuresis and urine osmolality in the animal model of X-linked nephrogenic diabetes insipidus (metabolic cage). It is filed as in vivo. How it is done: At one hour from the injection of the compound, the diuresis of the treated mice is set to zero compared to control animals.
In the mouse affected by nephrogenic diabetes insipidus (X-NDI) for conditional deletion of the AVPR2 receptor, the compound BRL37344 has been administered by intraperitoneal injection at the dosage of 0.6 mg/Kg. Five animals received the compound whereas as many control animals received the vehicle only (physiological saline). The cumulative diuresis has been measured in metabolic cage in both animal groups.
The data obtained are in line with a transient effect induced by the stimulation of the renal BAR3 receptors by BRL37344.

The test system of assay [2] is AQP2. The experiment in a line: kidney slices: AQP2 localisation by confocal laser scanning after stimulation. To be noted: slices of vital tissue from murine C57BL-6 kidneys, 45 minutes of stimulation. It is filed as cell-based, mice. How it is done: By the technique of “kidney slices”, thin slices of vital tissue from murine C57BL-6 kidneys have been obtained which, maintained in culture medium and appropriate atmosphere, have been stimulated with agonists able to increase the intracellular levels of cAMP (forskolin and vasopressin) and with the agonist of murine BRL37344 BAR3. After 45 minutes of stimulation the tissues have been fixed, marked for AQP2 and observed by confocal laser scanning.

Setting [3] is: X-NDI animal model, summary statement, no time point.
[4] abbreviates: X-NDI mice, 0.6 mg/Kg intraperitoneal, second hour after injection, vs control group, acetic acid sodium hydrate, 0.6 mg/kg.

With `C[C@H](Cc1ccc(OCC(=O)O)cc1)NC[C@H](O)c1cccc(Cl)c1.O.[Na]` (relative stereo) [BRL37344, (±)-(R*,R*)-[4-[2-[[2-(3-Chlorophenyl)-2-hydroxyethyl]amino]propyl]phenoxy] acetic acid sodium hydrate], the diuresis result in assay [1] (setting [3]) is on record as “drastic reduction of diuresis”. Moreover, the urine osmolality result is “increase of urine osmolality” in assay [1] (setting [3]); “significantly increased” in assay [1] (setting [4]); “tendency to increase although not statistically significant; also recorded: on average higher although not statistically different from that of the control group” in assay [1] (X-NDI mice, 0.6 mg/Kg intraperitoneal, third hour after injection, vs control group, acetic acid sodium hydrate, 0.6 mg/kg). The cumulative diuresis entry in assay [1] (X-NDI mice, 0.6 mg/Kg intraperitoneal, end of third hour after injection, vs control group, acetic acid sodium hydrate, 0.6 mg/kg) is “still drastically reduced; also recorded: still remained statistically lower than that of the control group”; in assay [1] (X-NDI mice, 0.6 mg/Kg intraperitoneal, first hour after injection, vs control group) it was “set to zero”; in assay [1] (setting [4]), “drastically reduced; also recorded: statistically reduced compared to the control group”. Moreover, in assay [2] (acetic acid sodium hydrate), the “apical membrane expression (repositioning) of AQP2” value is on record as “able to increase the apical levels of AQP2 with an effect comparable to that produced by vasopressin; also recorded: determines a repositioning of the marking of AQP2 on the apical membrane”.

For `NC(=O)CC[C@@H]1NC(=O)[C@H](Cc2ccccc2)NC(=O)[C@H](Cc2ccc(O)cc2)NC(=O)[C@@H](N)CSSC[C@@H](C(=O)N2CCC[C@H]2C(=O)N[C@@H](CCCN=C(N)N)C(=O)NCC(N)=O)NC(=O)[C@H](CC(N)=O)NC1=O` [Vasopressin, vasopressin], the “apical membrane expression (repositioning) of AQP2” value in assay [2] was “translocates AQP2 on the apical membrane of the tubular cells”.
